These results are taken from US9745349B2, “Cyclic peptide and pharmaceutical product containing same” (JAPAN SCIENCE AND TECHNOLOGY AGENCY, priority 2012, dated 2017).

The target in this test is O-acyl isopeptide of Aβ (Homo sapiens, UniProt P05067). Briefly: Aβ aggregation inhibition test (thioflavin T fluorescence). Format: biochemical. The note with it: inhibitor 30 μM, Aβ O-acyl isopeptide 10 μM, 0.1 M phosphate buffer pH 7.4, 1% DMSO, 37° C.; DMSO control taken as 100.
O-acyl isopeptide of Aβ, sequence (P05067 672-713 limits assumed): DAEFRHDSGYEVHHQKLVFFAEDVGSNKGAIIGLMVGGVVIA
Procedure: An aggregation inhibitory peptide solution (DMSO solution) was added to a 0.1 M phosphate buffer (pH 7.4, 50 μL) containing O-acyl isopeptide of Aβ (10 μM) (final concentration of inhibitor: 30 μM, 1% DMSO), and the resultant mixture was incubated at 37° C. for a specific period of time. Thereafter, a portion of the reaction mixture (10 μL) was added to a mixture of thioflavin T solution (50 μM thioflavin T, 10 μL) and 50 mM glycine-NaOH buffer (pH 8.5, 396 μL). Immediately thereafter, they were mixed together, and the fluorescence intensity of thioflavin T was measured at an excitation wavelength of 440 nm and an emission wavelength of 480 nm.
Regarding “cyclo-D-[Ala-Leu-Val-Phe-Phe] (ALVFF; HELM PEPTIDE1{[dA].[dL].[dV].[dF].[dF]}$PEPTIDE1,PEPTIDE1,1:R1-5:R2$$$V2.0; SMILES CC(C)C[C@H]1NC(=O)[C@@H](C)NC(=O)[C@@H](Cc2ccccc2)NC(=O)[C@@H](Cc2ccccc2)NC(=O)[C@@H](C(C)C)NC1=O) [Compound 3]”, the “Aggregation inhibitory activity ratio (the lower the ratio, the higher the inhibitory activity)” value worked out at 66. In the case of “cyclo-D-[Lys-Ala-Val-Phe-Phe] [Compound 4]”, the “Aggregation inhibitory activity ratio (the lower the ratio, the higher the inhibitory activity)” value is 88.

Consider “cyclo-D-[Lys-Leu-Ala-Phe-Phe] [Compound 5]”, for which the “Aggregation inhibitory activity ratio (the lower the ratio, the higher the inhibitory activity)” value turned out to be 82.

In the case of “cyclo-D-[Lys-Leu-Val-(4-(2-Py)-Ph)Ala-Phe] [Compound 13]”, the “Aggregation inhibitory activity ratio (the lower the ratio, the higher the inhibitory activity)” value is listed as 81. With “cyclo-D-[Lys-Leu-Val-(4-(3-Py)-Ph)Ala-Phe] [Compound 14]”, the “Aggregation inhibitory activity ratio (the lower the ratio, the higher the inhibitory activity)” value was determined as 49. As to “cyclo-D-[Lys-Leu-Val-(4-(3-phenol)-Ph)Ala-Phe] [Compound 17]”, the “Aggregation inhibitory activity ratio (the lower the ratio, the higher the inhibitory activity)” value is on record as 39. For the substance “cyclo-D-[Lys-Leu-Val-(4-(4-Py)-Ph)Ala-Phe] [Compound 15]”, the “Aggregation inhibitory activity ratio (the lower the ratio, the higher the inhibitory activity)” value stood at 57.

With “cyclo-D-[Lys-Leu-Val-(4-(5-pyrimidine)-Ph)Ala-Phe] [Compound 16]”, the “Aggregation inhibitory activity ratio (the lower the ratio, the higher the inhibitory activity)” value stood at 90. Take “cyclo-D-[Lys-Leu-Val-Ala-Phe] [Compound 6]”: the “Aggregation inhibitory activity ratio (the lower the ratio, the higher the inhibitory activity)” value is 106.

As to “cyclo-D-[Lys-Leu-Val-Phe(βPh)-Phe] [Compound 8]”, the “Aggregation inhibitory activity ratio (the lower the ratio, the higher the inhibitory activity)” value was 28. As for “cyclo-D-[Lys-Leu-Val-Phe-Ala] [Compound 7]”, the “Aggregation inhibitory activity ratio (the lower the ratio, the higher the inhibitory activity)” value is 104.
